Measured values reported in patent US20240180891A1, “SYNERGISTIC MODULATORS OF ALPHA-DICARBONYL DETOXIFICATION AND THEIR USE FOR INDUCING WEIGHT LOSS AND THE TREATMENT OF DIABETIC PATHOLOGIES” (Buck Institute for Research on Aging, priority 2020, published 2024).

Assays:
C. elegans = settings: feeding of AGE, data not shown
Source text: MGO-derived AGEs have been found in proteins with aging and in age-related diseases (see, e.g., Li et al. (2012) J. Neurol. Sci. 317: 1-5; Cone (2005) Nat. Neurosci. 8: 571-578; Mitchell et al. (2017) Oncotarget, 8: 17453-17474; Li et al. (2012) Neurobiol. Aging 33: 1400-1410). […] To investigate the impact of specific AGEs, we provided synthesized individual AGEs and examined their biological effects. We adapted published procedures to synthesize four AGEs on a gram scale: carboxymethyl-lysine (CML), carboxyethyl-lysine (CEL), fructose-lysine (F-Ly), and methylglyoxal-derived hydroimidazolone MG-H1. CEL and MG-H1 are MGO derived AGEs while CML is glyoxal derived, and F-LY is glucose derived.

C57BL/6 mice = system: C57BL/6 mice
Method: Percent weight increases indicate the percent change from starting body weights to the weights at the end of the two-week diet. Daily food consumption was measured twice weekly.
Next, we tested if MG-H1, which is detectable in human CSF and serum (Monnier et al. (2005) Ann. N. Y. Acad. Sci. 1043: 567-581), influences feeding in mice. We gave 12 week-old WT mice 100 μM or 200 μM MG-H1 via supplementation of drinking water for two weeks.

[1] = single compounds; cited from earlier work
[2] = target: T1, transient receptor potential cation channel (TRPA1) (Caenorhabditis elegans, UniProt Q18297); assay: ALA mechanism: TRPA1 activation and glyoxalase expression; set-up: species or system C. elegans
T1 sequence (Q18297 1-1211): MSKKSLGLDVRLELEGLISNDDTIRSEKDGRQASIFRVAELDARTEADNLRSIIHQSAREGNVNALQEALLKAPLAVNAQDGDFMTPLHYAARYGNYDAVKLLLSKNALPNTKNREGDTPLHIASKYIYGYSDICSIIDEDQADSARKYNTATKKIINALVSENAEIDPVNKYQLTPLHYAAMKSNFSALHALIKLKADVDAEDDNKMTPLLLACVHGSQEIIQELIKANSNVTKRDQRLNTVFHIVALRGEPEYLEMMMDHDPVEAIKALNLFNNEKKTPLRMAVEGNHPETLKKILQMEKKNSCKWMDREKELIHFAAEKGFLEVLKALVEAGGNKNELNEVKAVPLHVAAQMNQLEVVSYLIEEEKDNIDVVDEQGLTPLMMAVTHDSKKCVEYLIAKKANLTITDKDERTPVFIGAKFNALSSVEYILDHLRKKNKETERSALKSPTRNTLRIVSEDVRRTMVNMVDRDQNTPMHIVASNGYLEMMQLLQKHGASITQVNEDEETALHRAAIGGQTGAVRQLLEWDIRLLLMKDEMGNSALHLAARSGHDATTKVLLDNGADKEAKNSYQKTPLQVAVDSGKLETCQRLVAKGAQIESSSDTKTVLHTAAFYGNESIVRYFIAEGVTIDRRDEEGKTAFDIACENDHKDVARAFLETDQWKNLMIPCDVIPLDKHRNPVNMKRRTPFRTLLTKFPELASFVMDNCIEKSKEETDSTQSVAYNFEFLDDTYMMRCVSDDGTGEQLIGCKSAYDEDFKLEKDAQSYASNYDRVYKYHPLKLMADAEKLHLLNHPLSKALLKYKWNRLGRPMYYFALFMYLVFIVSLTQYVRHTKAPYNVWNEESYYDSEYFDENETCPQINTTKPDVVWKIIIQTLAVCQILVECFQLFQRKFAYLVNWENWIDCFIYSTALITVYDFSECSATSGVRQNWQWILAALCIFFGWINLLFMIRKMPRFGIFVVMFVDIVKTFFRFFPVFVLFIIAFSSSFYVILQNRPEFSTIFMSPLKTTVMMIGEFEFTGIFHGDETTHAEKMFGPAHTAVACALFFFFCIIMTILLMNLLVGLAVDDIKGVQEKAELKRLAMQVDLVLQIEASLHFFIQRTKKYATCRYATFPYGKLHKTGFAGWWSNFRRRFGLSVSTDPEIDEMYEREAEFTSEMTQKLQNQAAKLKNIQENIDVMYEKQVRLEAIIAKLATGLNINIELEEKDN
Source text: FIG. 4 illustrates a proposed model for how MGO is sensed by TRPA1 to activate SKN-1/Nrf2 and mediate detoxification of MGO through downstream glyoxalases in worms and mammals. MGO is sensed by TRPA-1 leading to the activation of SKN-1/Nrf2 pathway. This in turn activates downstream glyoxalases GLO1 and DJ1 (Id.).
(§1) We used C. elegans to screen for compounds that mitigate the detrimental phenotypes in the worm glod-4 mutant. […] This included alpha-lipoic acid (ALA), a drug already prescribed for diabetic neuropathy in certain countries (see, e.g., Giacco et al. (2014) Diabetes 63: 291-299).

C. elegans glod-4 mutant = C. elegans glod-4 mutant screen of natural product library for compounds mitigating MGO toxicity; assay type: in vivo; settings: C. elegans and mammalian neuronal cells; Tim Tec NPL-640 library
Source text: as §1

[3] = recent human trial (Bierhaus et al.); cited from earlier work
[4] = higher dose (200 μM) in drinking water, two weeks

Structure (SMILES) | food intake (C. elegans) | triglyceride content (C. elegans) | hourly food intake (C57BL/6 mice; data not shown) | water intake (C57BL/6 mice; data not shown) | energy expenditure (C57BL/6 mice; higher dose) | oxygen consumption (C57BL/6 mice; higher dose) | body weights (C57BL/6 mice; [4]) | food intake (C57BL/6 mice; [4]) | protection against obesity [1] | TRPA1 activation [2] | expression of glyoxalases (DJ1 and GLO1) [2] | amelioration of deleterious effects of MGO toxicity (C. elegans glod-4 mutant) | weight [3]
CC1NC(NCCC[C@H](N)C(=O)O)=NC1=O (some centres unmarked) [MG-H1, hydroimidazolone Nδ-(5-hydro-5-methyl-4-imidazolon-2-yl) ornithine] | enhances food intake | increases triglyceride content | increase in hourly food intake | relatively similar water intake | reactive increase | reactive increase | significant increase | significant increase |  |  |  |  | 
NC(=O)c1cccnc1 [nicotinamide] |  |  |  |  |  |  |  |  | protect against obesity |  |  |  | 
O=C(O)CCCCC1CCSS1 (stereo not drawn) [alpha-lipoic acid, 1,2-dithiolane-3-pentanoic acid] |  |  |  |  |  |  |  |  | protect against obesity | activates | enhancing the expression | ameliorate the deleterious effects of MGO toxicity | effectiveness in reducing weight
